Among the data in PubChem BioAssay (NCI) are TGI values, retold here.

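Following 48 hours of exposure in 96-well plates, responses at five concentrations were used to interpolate endpoints linearly. The concentration for full growth arrest is given as TGI.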

Test systems include ACHN renal; HS 578T breast; IGROV1 ovarian; K-562 leukemia; KM12 colon; M14 melanoma; MALME-3M melanoma; MDA-MB-231 breast; NCI-H226 lung; NCI-H522 lung; NCI/ADR-RES ovarian; OVCAR-3 ovarian; OVCAR-4 ovarian; PC-3 prostate; SNB-19 CNS; SW-620 colon; T-47D breast; UACC-257 melanoma; UO-31 renal; MOLT-4 leukemia.
Holding throughout (assay): NCI-60 cell line screen, 48 h

For `CO[C@@]12C[C@@H](C)[C@]34O[C@H]3C[C@]3(C)O[C@]43CC1=C(C)C(=O)O2`, the TGI with ACHN renal, with HS 578T breast, with IGROV1 ovarian, in the test on K-562 leukemia, in the test on KM12 colon and in the test on M14 melanoma was > 100 µM each time. Further, the TGI with MALME-3M melanoma, in the test with MDA-MB-231 breast, in the test on NCI-H226 lung, with NCI-H522 lung, with NCI/ADR-RES ovarian and in the test on OVCAR-3 ovarian was > 100 µM each time. Moreover, the TGI in the test on OVCAR-4 ovarian, with PC-3 prostate, with SNB-19 CNS, in the test on SW-620 colon, with T-47D breast and in the test with UACC-257 melanoma was > 100 µM throughout. The TGI in the test on UO-31 renal was > 100 µM.

For the molecule `CCC1(CC)N=C(C(F)(F)F)c2cc(C(=O)C(F)(F)F)c3ccccc3c2N1`, the TGI in the test with ACHN renal was > 100 µM; with HS 578T breast it was 32.2 µM; in the test on IGROV1 ovarian it was 23 µM; in the test on K-562 leukemia, > 100 µM; in the test on KM12 colon, > 100 µM; with M14 melanoma, 25.3 µM. The TGI is 57.3 µM in the test on MALME-3M melanoma; 12.3 µM with MDA-MB-231 breast; 20.9 µM in the test on NCI-H226 lung; 11.1 µM with NCI-H522 lung; 42.1 µM with NCI/ADR-RES ovarian; 8.58 µM in the test on OVCAR-3 ovarian. Moreover, the TGI was > 100 µM with OVCAR-4 ovarian; > 100 µM with PC-3 prostate; > 100 µM in the test with SNB-19 CNS; > 100 µM in the test on SW-620 colon; 15.2 µM with T-47D breast; 33.9 µM in the test on UACC-257 melanoma. In addition, the TGI in the test on UO-31 renal is 16.9 µM.

As to `O=CC1C(Cl)=Nc2nc3ccccc3n2C1c1ccccc1` (stereo unspecified), the TGI with ACHN renal stood at 33.3 µM; in the test with HS 578T breast, 25.4 µM; in the test on IGROV1 ovarian, 43.8 µM; in the test with K-562 leukemia, 37.3 µM; in the test with KM12 colon, 51.4 µM; in the test with M14 melanoma it was 64.6 µM. The TGI with MALME-3M melanoma was 52.5 µM; with MDA-MB-231 breast, 38.6 µM; in the test with NCI-H226 lung it was 38.1 µM; in the test with NCI-H522 lung, 27.3 µM; in the test on NCI/ADR-RES ovarian, 65.6 µM; in the test on OVCAR-3 ovarian it was 43.2 µM. Also, the TGI is 44 µM in the test on OVCAR-4 ovarian; 40.7 µM in the test on PC-3 prostate; > 100 µM in the test with SNB-19 CNS; 40.2 µM in the test on SW-620 colon; 41.2 µM in the test with T-47D breast; 58.2 µM in the test on UACC-257 melanoma. The TGI in the test on UO-31 renal amounted to 48.4 µM.

On to `CC(C)OC(=O)[C@H]1ON2O[C@H](O[C@@H]3CCCC[C@H]3c3ccccc3)C([Si](C)(C)c3ccccc3)[C@H]3OC(=O)[C@@H]1C32` (stereo partly specified), for which the TGI in the test on ACHN renal, in the test on HS 578T breast, with IGROV1 ovarian, in the test with K-562 leukemia, in the test on KM12 colon and in the test on M14 melanoma was > 100 µM in each case. The TGI in the test with MDA-MB-231 breast, with MOLT-4 leukemia, with NCI-H226 lung, in the test on NCI-H522 lung, with NCI/ADR-RES ovarian and in the test with OVCAR-3 ovarian was > 100 µM in each case. Further, the TGI in the test on PC-3 prostate, in the test on SNB-19 CNS, with SW-620 colon, in the test on T-47D breast, in the test on UACC-257 melanoma and in the test with UO-31 renal was > 100 µM throughout.

Turning to `O=[N+]([O-])c1cc(-[n+]2cc([O-])on2)ccc1Cl`, the TGI in the test on ACHN renal was 29.5 µM; in the test with HS 578T breast it was 31.3 µM; with IGROV1 ovarian, 64.5 µM; in the test on K-562 leukemia, > 100 µM; in the test on KM12 colon, 54.9 µM; with M14 melanoma, 41.8 µM. Also, the TGI in the test on MALME-3M melanoma was 32.9 µM; in the test on MDA-MB-231 breast it was 37.7 µM; in the test on NCI-H226 lung, > 100 µM; in the test on NCI-H522 lung, 31.7 µM; with NCI/ADR-RES ovarian, 58.8 µM; in the test on OVCAR-3 ovarian, > 100 µM. Besides, the TGI was 29.1 µM in the test on OVCAR-4 ovarian; > 100 µM in the test on PC-3 prostate; 27.1 µM in the test with SNB-19 CNS; 26.2 µM with SW-620 colon; 38.8 µM with T-47D breast; 27.5 µM in the test on UACC-257 melanoma. The TGI in the test on UO-31 renal was determined as 31 µM.

With `CCOC(=O)c1c(N2CCCC2)[nH]c(=O)c(C(c2ccc(Cl)c([N+](=O)[O-])c2)c2c(O)c(C(=O)OCC)c(N3CCCC3)[nH]c2=O)c1O`, the TGI in the test with ACHN renal is > 100 µM; in the test on HS 578T breast, > 100 µM; in the test on K-562 leukemia, > 100 µM; with KM12 colon, > 100 µM; in the test with M14 melanoma it was 42.7 µM; with MALME-3M melanoma, 84.6 µM. In addition, the TGI is 50.5 µM with MDA-MB-231 breast; > 100 µM in the test on MOLT-4 leukemia; > 100 µM with NCI-H226 lung; 74.1 µM with NCI-H522 lung; 73.4 µM in the test with NCI/ADR-RES ovarian; > 100 µM in the test on OVCAR-3 ovarian. In addition, the TGI in the test on OVCAR-4 ovarian is > 100 µM; in the test with PC-3 prostate, 83.9 µM; in the test with SNB-19 CNS, 49.9 µM; with SW-620 colon, > 100 µM; with T-47D breast it was > 100 µM; in the test with UACC-257 melanoma it was > 100 µM. In the test on UO-31 renal, this molecule showed a TGI of 66.6 µM.

Turning to `CCNC1=C(NC(=O)c2ccccc2)C(=O)c2ccccc2C1=O`, the TGI in the test with HS 578T breast was > 100 µM; in the test on IGROV1 ovarian it was > 100 µM; in the test on K-562 leukemia, > 100 µM; in the test on KM12 colon, > 100 µM; in the test with M14 melanoma, > 100 µM; with MALME-3M melanoma it was 43 µM. Moreover, the TGI in the test on MDA-MB-231 breast was > 100 µM; in the test on MOLT-4 leukemia it was > 100 µM; in the test on NCI-H226 lung it was > 100 µM; with NCI-H522 lung, 79.2 µM; with NCI/ADR-RES ovarian, 39.7 µM; in the test with OVCAR-3 ovarian, 85.3 µM. The TGI in the test with OVCAR-4 ovarian was > 100 µM; in the test with PC-3 prostate, 78.9 µM; in the test on SNB-19 CNS, > 100 µM; in the test on SW-620 colon, > 100 µM; in the test on T-47D breast it was > 100 µM; in the test on UACC-257 melanoma, 64.5 µM.
